The results in this text go back to a melting point compilation (Tetko et al.; mined from patent text by program, amines drawn as free bases though some values may be those of a salt).

Where only a bound is given, the exact number is not on record here.

By melting point is commonly meant the temperature of the solid-liquid transition. As to `COC(=O)C[C@H](CCC(=O)OCc1ccccc1)NC(=O)OC(C)(C)C`, the melting point lay in the range of 97 to 98 °C. As to `CNC(=O)c1cc(C(=O)O)c(Nc2ccc(I)cc2C)c(F)c1F`, the melting point lay in the range of 254 to 259 °C. On to `CC(C)c1cccc(C(C)C)c1NC(=O)C1c2ccccc2COc2cc(Br)ccc21` (stereo not drawn), for which the melting point lay within 170 to 172 °C. `O=C(NCc1ccc(Cl)cc1)c1cnc2c(F)cc(C#CCCO)cc2c1O` registered a melting point of 253 to 255 °C. With `OC1CC2(CCNC2)c2ccc(F)cc21` (stereo not drawn), the melting point is 162 to 164 °C.

`c1csc(-c2nc(COc3ccc(CCCn4ccnc4)cc3)co2)c1`: the melting point fell in the range of 84 to 85 °C. Take `CC(=O)N(C(C)=O)c1c(OCc2ccccc2)cc(Br)cc1[N+](=O)[O-]`: the melting point came to 148 °C. Take `CCn1c(N)c(C(=O)NC)c(=O)c2ccc(-c3ccc(NS(C)(=O)=O)cc3)nc21`: the melting point was > 300 °C. `CC(c1n[nH]c(=O)[nH]1)N1CCC[C@H](O[C@H](C)c2cc(C(F)(F)F)cc(C(F)(F)F)c2)[C@@H]1c1ccccc1` (stereo partly drawn) returned a melting point of 257 to 258 °C.

As to `CC(O)CNc1c([N+](=O)[O-])cnc2ccccc12` (stereo not drawn), the melting point was 209 to 210 °C. In turn, `COC(=O)c1nc(NC(C)=O)ccc1Oc1nc(OC)cc(OC)n1` registered a melting point of 80 to 85 °C. Consider `CC(=O)Oc1ccc2c(c1)CC1(C)Cc3ccccc3C1=CC2C` (stereo not drawn), for which the melting point fell in the range of 131 to 133 °C.

`CCOCn1c(N)c(C#N)c2c(N)ncnc21`: the melting point is 229 to 230 °C.

With `O=C(NCc1noc(-c2c3ccccc3nn2CCn2ccnc2)n1)c1ccccc1`, the melting point was in the range of 167 to 168 °C.

`CCCCc1nn(-c2cc(C(=O)N(C)CCCC)ccc2Cl)c(=O)n1Cc1ccc(-c2ccccc2S(=O)(=O)NC(=O)c2ccccc2Cl)cc1`: the melting point is > 90 °C. In the case of `Nc1c([N+](=O)[O-])cnn1-c1c(Cl)cc(C(F)(F)F)cc1Cl`, the melting point was found to be 190 °C. For the compound `COCc1cc(Cl)n2nc(SCc3ccccc3)nc2n1`, the melting point was found to be 79 °C. The compound `Cn1ncc2c(C(F)F)cc(Cl)nc21` came in with a melting point of 105 °C.

Regarding `CCOC(=O)/C=C/c1cnc(-c2ccc(OCc3ccccc3)c(C34CC5CC(CC(C5)C3)C4)c2)cn1`, the melting point lay in the range of 145 to 148 °C. With `CCCCc1nc2ncccc2n1Cc1ccc(-c2ccccc2C(=O)O)cc1` the figure was 170 °C. The compound `N#Cc1cc(Br)cc(CO)c1` gave a melting point of 108 to 109 °C.

Take `CCN(CC)CCCC1CCCCN1C(=O)N1c2ccccc2C(=O)Nc2cccnc21` (stereo not drawn): the melting point lay in the range of 125 to 128 °C.

On to `O=C(O)C[C@]1(O)C[C@H](CCCCCCc2ccc(C(F)(F)F)cc2C(F)(F)F)OC1=O` (relative stereo), for which the melting point lay in the range of 70 to 73 °C. Turning to `Cc1c(Cc2nc(C(=O)O)cs2)n(S(=O)(=O)c2cccc(C(C)(C)C)c2)c2ccc(C(F)(F)F)cc12`, the melting point amounted to 60 °C.

Compound `Cc1ccc(C(=O)Nc2ccccc2)cc1[N+](=O)[O-]` came in with a melting point of 147 to 148 °C. Take `CCCN(CCC)c1nc2c(N3CCSCC3)nccc2c(=O)[nH]1`: the melting point was found to be 226 °C. In the case of `Cc1ccc(Br)cc1Cn1c(C(F)F)nn(C)c1=O`, the melting point was 108 °C. As for `COC(=O)C1CCN2C(=O)C(=O)c3cc([N+](=O)[O-])cc1c32` (stereo not drawn), the melting point is 144 to 145 °C. `Cc1c(=O)o[n-][n+]1CCSC1CCCCC1`: the melting point lay within 82 to 83 °C.

Compound `CCc1nn(CCNC(=O)OC(C)(C)C)c(CN)c1Oc1cc(Cl)cc(Cl)c1` had a melting point of 112 to 114 °C. In turn, `COc1cc(C(=O)c2ccccn2)cc([N+](=O)[O-])c1OC` had a melting point of 113 °C. The compound `N=C(N)Nc1nc(CCCCNC(N)=N[N+](=O)[O-])cs1` yielded a melting point of 180 to 181 °C. `CCCCCCc1ccc(-c2ncc(C#N)c(Cl)n2)cc1` displayed a melting point of 80.3 to 80.5 °C. Take `Fc1cc2c(Nc3ccc(F)c(C(F)(F)F)c3)ncnc2cn1`: the melting point was in the range of 247 to 249 °C.

`C=Cc1ccc2sc(S(N)(=O)=O)cc2c1` registered a melting point of 168 to 170 °C.

`COc1ccc2ccc(S(=O)(=O)N[C@@H](CCCNC(=N)N)C(=O)N3CCC(c4ccccc4)CC3C(=O)O)cc2c1` (stereo partly drawn) registered a melting point of 183 to 186 °C. As for `Nc1cccc(S(=O)(=O)NC(=O)C(F)(F)F)c1`, the figure is 106 to 108 °C; as for `CNC(=O)c1ccc(C)c(-c2nc(S(C)(=O)=O)nc3c2CNC(=O)N3c2c(F)cccc2F)c1`, 275 to 278 °C; as for `CNC1CCCN(c2ccc3c(NC(=O)CC4CCCCC4)c(Cl)ccc3n2)C1` (stereo not drawn), 158 to 159 °C.

`O=C(CCc1ccc(NC(=O)C(F)(F)F)c([N+](=O)[O-])c1)Nc1ccc(Cl)cc1Cl` showed a melting point of 193 to 194 °C. The compound `CCOC(=O)C(N)N=Nc1ccc(Br)cc1C(=O)c1ccccn1` (stereo not drawn) gave a melting point of 156 to 157 °C. Consider `NC(=O)c1c(-c2ccc(F)cc2)cc2c3c1ccn3C(=O)CNC2`, for which the melting point lay in the range of 287 to 289 °C. `COc1cc(C(=O)c2c(C)nn(C)c2O)cc(OC)c1OC`: the melting point is 189 to 191 °C. `CCOCc1nc2c(N)nc(C)c(C)c2n1NC1CCCCC1` came in with a melting point of 108 to 110 °C. With `NC(=O)CCCOc1cccc(CCNS(=O)(=O)c2ccc(Cl)cc2)c1` the figure was 110 to 112 °C. `Cc1cc(C#N)cnc1N` had a melting point of 198 to 200 °C. `CCCCC(=N)NC(=O)Nc1ccccc1Cl`: the melting point lay in the range of 132 to 134 °C. In the case of `COc1ccc2c(c1OC)CN(c1nc(N)c3cc(OC)c(OC)c(OC)c3n1)CC2`, the melting point was 190 °C. With `CC(C)(C)c1cc(I)c2c(c1)CNS(=O)(=O)O2` the figure was 154 to 155 °C. `Cc1cc(F)ccc1-c1cc(N2CCSCC2)ncc1C(=O)NC(C)(C)C` came in with a melting point of 164 to 169 °C. With `c1ccc(-c2cc3c(N4CCOCC4)nnc(N4CCOCC4)c3cn2)cc1` the figure was 186 to 188 °C; with `CCCCCCCCCCCCC1C=CC(Oc2ccc(C(=O)O)o2)=C2N=C3CCCCC3=C21` (stereo not drawn), 110 to 112 °C; with `CC(=O)OCC(=O)CS(=O)(=O)C(c1ccc(Cl)cc1)c1ccc(Cl)cc1`, 57 to 60 °C. Consider `CSc1nccc(-c2nc(=O)c3ccccc3s2)n1`, for which the melting point was 224 °C. `CCOC(=O)c1ccc(NC(=O)CC2c3ccccc3Sc3ccccc32)cc1` showed a melting point of 184 to 186 °C. As for `CC(=O)c1c(C)nn2ccccc12`, the figure is 85.2 to 88.1 °C; as for `O=c1cc2c(nn1-c1ccc(Cl)cc1)-c1cc(F)ccc1S(=O)CC2` (stereo not drawn), 233 to 235 °C; as for `OC[C@H]1OC(O)[C@H](O)[C@H](F)[C@@H]1O` (stereo partly drawn), 120 to 122 °C. `CCOC(=O)c1c(N2CCN(Cc3ccccc3)CC2)n[nH]c1C`: the melting point fell in the range of 124 to 126 °C. With `CC1CCN(C(=O)NCCc2ccc(S(=O)(=O)NC(=O)NC3CCC(C)C3)cc2)C(=O)C1` (stereo not drawn) the figure was 145 to 147 °C. `CN1C(=O)SC(=C(CO)c2cccc3ccccc23)C1=O` showed a melting point of 112 to 113 °C. As for `CCOC(=O)C1=C(C)NC(C)=C(C(=O)OCC)C1c1ccc(F)cc1`, the figure is 150 to 151 °C; as for `CC1OC(COc2ccc(Cl)cc2)OC1=O` (stereo not drawn), 53 to 55 °C.

Consider `O=C(NCc1ccccc1)n1c(=O)sc2c(Cl)cccc21`, for which the melting point worked out at 106 °C.

Take `CCN1c2ncccc2C(SC)=Nc2c(C)cc(C)nc21`: the melting point lay within 130 to 132 °C. In turn, `NCCNCCN1CCC(c2cn(-c3ccc(F)cc3)c3ccc(Cl)cc23)CC1` registered a melting point of 150 °C. Compound `CN(C)S(=O)(=O)c1cc2c(c(Cl)c1Cl)OC(CO)C2` (stereo not drawn) yielded a melting point of 133 to 134 °C. Regarding `Cc1cccc2c(-c3ccccc3)c([N+](=O)[O-])oc12`, the melting point is 122 to 127 °C. For the compound `CCOC(=O)COc1ccc(C(=O)c2ccn[nH]2)c(Cl)c1Cl`, the melting point fell in the range of 147 to 149 °C.

On to `COc1ccc([C@H]2CC[C@H](c3ccc(OC)c(OC)c3)O2)cc1OC` (relative stereo), for which the melting point is 114 to 115 °C. `COc1ccc2c(CCN3CC=C(c4c[nH]c5cc(F)ccc45)CC3)coc2c1` gave a melting point of 181 °C. As for `CC(C)(C)OC(=O)N1CCN(Cc2ccc3c(c2)-c2[nH]nc(-c4ccsc4)c2C3)CC1`, the figure is 218 to 220 °C; as for `NC(=O)c1nc(C2CC2)nc(NCc2ccco2)c1Cl`, 126 to 128 °C. In turn, `CC1(C)CCC(C)(C)c2c(OCc3ccc(F)cc3)cc(C(O)C#Cc3ccc(C(=O)O)cc3)cc21` (stereo not drawn) came in with a melting point of 188 °C. With `Oc1ccc(-c2nn(-c3ccc(Br)cc3)c3cc(O)ccc23)c(O)c1`, the melting point was 246 °C. As for `CNc1cc(N2CCN(C(=O)N3CCN(S(=O)(=O)c4ccc(C(F)(F)F)cc4)CC3)CC2)ncn1`, the figure is 230 to 231 °C. The compound `O=C(O)c1cn(C2CC2)c2cc(Cl)ccc2c1=O` gave a melting point of 307 to 308 °C. As for `CN1C(O)=C(C(=O)Nc2ccc(Cl)cc2)c2sccc2S1(=O)=O`, the figure is 172 °C; as for `CCNc1cc(-c2nc(=O)c3ccccc3s2)ccc1C(=O)OC`, 171 to 178 °C. The compound `Oc1ccc2c(c1)OCC(c1ccc(F)cc1)C2c1ccc(OCCN2CCCCC2)cc1` (stereo not drawn) returned a melting point of 146 to 147 °C. `CCC1=NC(NC(=O)Nc2cccc(C)c2)C(=O)N(CC(=O)C2CCCCC2)c2c(C)cccc21` (stereo not drawn) came in with a melting point of 161 to 164 °C. Take `CC(C)(C)Nc1c(NCc2ccc(C(F)(F)F)cc2)c(=O)c1=O`: the melting point was in the range of 306 to 308 °C. With `O=c1nc(-c2cccc(Cl)c2)c2cc(C(c3ccc(Cl)cc3)n3ccnc3-c3ccccc3)ccc2[nH]1` (stereo not drawn) the figure was 170 °C.

Take `CC(O)c1nc2c(C(F)(F)F)cccc2c(O)c1C(=O)Nc1nccs1` (stereo not drawn): the melting point was 205 °C. Turning to `Cc1ccc(-c2cnc(-c3ccc(C(F)(F)F)cc3)s2)s1`, the melting point was 150 to 152 °C.

The compound `O=C1c2cc(OCc3ccccc3)ccc2OCC1Oc1ccccc1` (stereo not drawn) came in with a melting point of 100 to 102 °C. As to `COC(=O)CC(c1ccc(F)cc1)C(C(=O)OC)C(=O)OC` (stereo not drawn), the melting point is 75 to 76 °C. For `CCC12CCC3C4CCC(=O)C=C4CCC3C1C=CC2=O` (stereo not drawn), the melting point was determined as 157 °C.
